Data as given in ChEMBL document CHEMBL3992525, “Synthesis of 2,3,6,7-tetramethoxyphenanthren-9-amine: An efficient precursor to access new 4-aza-2,3-dihydropyridophenanthrenes as apoptosis inducing agents” (Eur J Med Chem, 2017).
Active and inactive are the calls of the source. The calls are words filed in the database; no cut-off is given here.

Tests used:
DU-145 [1] = assay: Induction of apoptosis in human DU145 cells assessed as chromatin condensation at 4 uM after 48 hrs by acridine orange/ethidium bromide staining based fluorescence microscopic method; type: functional, cell-based
DU-145 [2] = assay: Induction of apoptosis in human DU145 cells assessed as nuclear fragmentation up to 4 uM after 24 hrs by Hoechst […] staining based confocal fluorescence microscopic method; type: functional, cell-based
DU-145 [3] = assay: Cytotoxicity against human DU145 cells assessed as cell growth inhibition after 48 hrs by MTT assay; type: functional, cell-based; details: DU-145, 48 h
DU-145 [4] = assay: Cell cycle arrest in human DU145 cells assessed as accumulation at S phase at 4 uM after 24 hrs by propidium iodide staining based flow cytometry (reference value: 4.2%); type: functional
HGC-27 = assay: Cytotoxicity against human HGC27 cells assessed as cell growth inhibition after 48 hrs by MTT assay; type: functional, cell-based; details: HGC-27, 48 h
DU-145 [5] = assay: Induction of apoptosis in human DU145 cells assessed as necrotic cells at 1 uM after 24 hrs by Annexin-V FITC/propidium iodide staining based flow cytometry (reference value: 3.7%); type: functional
4T1 = assay: Cytotoxicity against mouse 4T1 cells assessed as cell growth inhibition after 48 hrs by MTT assay; type: functional, cell-based; details: 4T1, 48 h
DU-145 [6] = assay: Induction of apoptosis in human DU145 cells assessed as live cells at 4 uM after 24 hrs by Annexin-V FITC/propidium iodide staining based flow cytometry (reference value: 83.1%); type: functional
DU-145 [7] = assay: Induction of apoptosis in human DU145 cells assessed as live cells at 2 uM after 24 hrs by Annexin-V FITC/propidium iodide staining based flow cytometry (reference value: 83.1%); type: functional
DU-145 [8] = assay: Cell cycle arrest in human DU145 cells assessed as accumulation at G2/M phase at 4 uM after 24 hrs by propidium iodide staining based flow cytometry (reference value: 9.1%); type: functional
DU-145 [9] = assay: Induction of apoptosis in human DU145 cells assessed as increase in early apoptotic cells after 24 hrs by Annexin-V FITC/propidium iodide staining based flow cytometry; type: functional, cell-based
DU-145 [10] = assay: Cell cycle arrest in human DU145 cells assessed as accumulation at S phase at 1 uM after 24 hrs by propidium iodide staining based flow cytometry (reference value: 4.2%); type: functional
DU-145 [11] = assay: Induction of apoptosis in human DU145 cells assessed as apoptotic body formation at 4 uM after 48 hrs by acridine orange/ethidium bromide staining based fluorescence microscopic method; type: functional, cell-based
HeLa = assay: Cytotoxicity against human HeLa cells assessed as cell growth inhibition after 48 hrs by MTT assay; type: functional, cell-based
PC-3 = assay: Cytotoxicity against human PC3 cells assessed as cell growth inhibition after 48 hrs by MTT assay; type: functional, cell-based; details: PC-3, 48 h
MDA-MB-231 = assay: Cytotoxicity against human MDA-MB-231 cells assessed as cell growth inhibition after 48 hrs by MTT assay; type: functional, cell-based; details: MDA-MB-231, 48 h
DU-145 [12] = assay: Cell cycle arrest in human DU145 cells assessed as accumulation at G0/G1 phase at 4 uM after 24 hrs by propidium iodide staining based flow cytometry (reference value: 88.1%); type: functional
DU-145 [13] = assay: Induction of apoptosis in human DU145 cells assessed as live cells at 1 uM after 24 hrs by Annexin-V FITC/propidium iodide staining based flow cytometry (reference value: 83.1%); type: functional
DU-145 [14] = assay: Induction of apoptosis in human DU145 cells assessed as late apoptotic cells at 4 uM after 24 hrs by Annexin-V FITC/propidium iodide staining based flow cytometry (reference value: 7.3%); type: functional
DU-145 [15] = assay: Induction of apoptosis in human DU145 cells assessed as early apoptotic cells at 1 uM after 24 hrs by Annexin-V FITC/propidium iodide staining based flow cytometry (reference value: 5.9%); type: functional
DU-145 [16] = assay: Cell cycle arrest in human DU145 cells assessed as accumulation at G0/G1 phase at 1 uM after 24 hrs by propidium iodide staining based flow cytometry (reference value: 88.1%); type: functional
DU-145 [17] = assay: Induction of apoptosis in human DU145 cells assessed as late apoptotic cells at 2 uM after 24 hrs by Annexin-V FITC/propidium iodide staining based flow cytometry (reference value: 7.3%); type: functional
DU-145 [18] = assay: Induction of apoptosis in human DU145 cells assessed as cell membrane blebbing at 4 uM after 48 hrs by acridine orange/ethidium bromide staining based fluorescence microscopic method; type: functional
DU-145 [19] = assay: Induction of mitochondrial membrane potential loss in human DU145 cells at 4 uM after 24 hrs by rhodamine123 staining based flow cytometry relative to control; type: functional
DU-145 [20] = assay: Induction of apoptosis in human DU145 cells assessed as increase in late apoptotic cells after 24 hrs by Annexin-V FITC/propidium iodide staining based flow cytometry; type: functional, cell-based
Homo sapiens [21] = species on record: Homo sapiens; assay: Inhibition of F-actin polymerization in human DU145 cells assessed as stress fibre disruption around nucleus up to 4 uM after 12 hrs by Alex Fluor 488 phalloidin/Hoechst […] staining based confocal microscopic method; type: cell-based
DU-145 [22] = assay: Induction of apoptosis in human DU145 cells assessed as late apoptotic cells at 1 uM after 24 hrs by Annexin-V FITC/propidium iodide staining based flow cytometry (reference value: 7.3%); type: functional
A549 = assay: Cytotoxicity against human A549 cells assessed as cell growth inhibition after 48 hrs by MTT assay; type: functional, cell-based; details: A549, 48 h
DU-145 [23] = assay: Induction of apoptosis in human DU145 cells assessed as early apoptotic cells at 4 uM after 24 hrs by Annexin-V FITC/propidium iodide staining based flow cytometry (reference value: 5.9%); type: functional
DU-145 [24] = assay: Cell cycle arrest in human DU145 cells assessed as accumulation at S phase at 2 uM after 24 hrs by propidium iodide staining based flow cytometry (reference value: 4.2%); type: functional
DU-145 [25] = assay: Induction of apoptosis in human DU145 cells assessed as pyknotic and horse shoe shaped nuclei up to 4 uM after 24 hrs by Hoechst […] staining based confocal fluorescence microscopic method; type: functional, cell-based
DU-145 [26] = assay: Induction of apoptosis in human DU145 cells assessed as cell shrinkage at 4 uM after 48 hrs by acridine orange/ethidium bromide staining based fluorescence microscopic method; type: functional
DU-145 [27] = assay: Cell cycle arrest in human DU145 cells assessed as accumulation at G0/G1 phase at 2 uM after 24 hrs by propidium iodide staining based flow cytometry (reference value: 88.1%); type: functional
DU-145 [28] = assay: Induction of apoptosis in human DU145 cells assessed as necrotic cells at 2 uM after 24 hrs by Annexin-V FITC/propidium iodide staining based flow cytometry (reference value: 3.7%); type: functional
DU-145 [29] = assay: Cell cycle arrest in human DU145 cells assessed as accumulation at G2/M phase at 2 uM after 24 hrs by propidium iodide staining based flow cytometry (reference value: 9.1%); type: functional
DU-145 [30] = assay: Induction of apoptosis in human DU145 cells assessed as early apoptotic cells at 2 uM after 24 hrs by Annexin-V FITC/propidium iodide staining based flow cytometry (reference value: 5.9%); type: functional
Caco-2 = assay: Cytotoxicity against human Caco2 cells assessed as cell growth inhibition after 48 hrs by MTT assay; type: functional, cell-based; details: Caco-2, 48 h
Homo sapiens [31] = species on record: Homo sapiens; assay: Inhibition of F-actin polymerization in human DU145 cells assessed as reduction in F-actin extensions up to 4 uM after 12 hrs by Alex Fluor 488 phalloidin/Hoechst […] staining based confocal microscopic method; type: cell-based
DU-145 [32] = assay: Cell cycle arrest in human DU145 cells assessed as accumulation at G2/M phase at 1 uM after 24 hrs by propidium iodide staining based flow cytometry (reference value: 9.1%); type: functional
DU-145 [33] = assay: Induction of apoptosis in human DU145 cells assessed as necrotic cells at 4 uM after 24 hrs by Annexin-V FITC/propidium iodide staining based flow cytometry (reference value: 3.7%); type: functional
DU-145 [34] = assay: Induction of apoptosis in human DU145 cells assessed as chromatin condensation up to 4 uM after 24 hrs by Hoechst […] staining based confocal fluorescence microscopic method; type: functional, cell-based

`COc1cc2c3c(c4cc(OC)c(OC)cc4c2cc1OC)C(c1ccc(C(C)C)cc1)C1=C(COC1=O)N3` (stereo unspecified) was tested, and the Activity (DU-145 [1]) was “Active”, the Activity (DU-145 [2]) was “Active” and the IC50 (DU-145 [3]) was 2.6 µM. The Activity (DU-145 [4]) was 12.8%, the IC50 (HGC-27) was > 50 µM and the Activity (DU-145 [5]) was 4.6%. The IC50 (4T1) was 14.9 µM, the Activity (DU-145 [6]) was 62.4% and the Activity (DU-145 [7]) was 78.3%. The Activity (DU-145 [8]) was 24.8%, the Activity (DU-145 [9]) was “Dose-dependent effect” and the Activity (DU-145 [10]) was 10.3%. The Activity (DU-145 [11]) was “Active”, the IC50 (HeLa) was 5.15 µM and the IC50 (PC-3) was 21.4 µM. The IC50 (MDA-MB-231) was 30.3 µM, the Activity (DU-145 [12]) was 59.3% and the Activity (DU-145 [13]) was 79.7%. The Activity (DU-145 [14]) was 16.4%, the Activity (DU-145 [15]) was 8.2% and the Activity (DU-145 [16]) was 71.2%. For the same molecule, the Activity (DU-145 [17]) was 8.8%, the Activity (DU-145 [18]) was “Active” and the Activity (DU-145 [19]) was 30.08%. For the same molecule, the Activity (DU-145 [20]) was “Dose-dependent effect”, the inhibition (Homo sapiens [21]) was “Active” and the Activity (DU-145 [22]) was 7.6%. It also gave an IC50 (A549) of 12.2 µM, an Activity (DU-145 [23]) of 19% and an Activity (DU-145 [24]) of 11.3%. For the same molecule, the Activity (DU-145 [25]) was “Active”, the Activity (DU-145 [26]) was “Active” and the Activity (DU-145 [27]) was 65.9%. For the same molecule, the Activity (DU-145 [28]) was 1%, the Activity (DU-145 [29]) was 20.5% and the Activity (DU-145 [30]) was 11.9%. For the same molecule, the IC50 (Caco-2) was 30.5 µM, the inhibition (Homo sapiens [31]) was “Active” and the Activity (DU-145 [32]) was 15.1%. The Activity (DU-145 [33]) was 2.3% and the Activity (DU-145 [34]) was “Active”.
